Data on two substances can be found in patent US6383812B1, “Anti liver disease drug R-YEEE and method of synthesizing branched galactose-terminal glycoproteins” (Academia Sinica, priority 1999, dated 2002).

The target in assay [1] is T1, asialoglycoprotein receptor (ASGPr) (Homo sapiens, UniProt P07306+P07307).
T1 sequence (P07306 1-291): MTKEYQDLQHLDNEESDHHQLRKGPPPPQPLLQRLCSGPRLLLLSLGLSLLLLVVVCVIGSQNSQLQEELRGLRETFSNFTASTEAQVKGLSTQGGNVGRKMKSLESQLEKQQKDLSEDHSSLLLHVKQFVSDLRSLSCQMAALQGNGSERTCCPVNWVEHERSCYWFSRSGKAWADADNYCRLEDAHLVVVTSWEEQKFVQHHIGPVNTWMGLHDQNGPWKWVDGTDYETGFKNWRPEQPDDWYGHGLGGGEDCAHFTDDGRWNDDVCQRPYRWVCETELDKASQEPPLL
T1 sequence (P07307 1-311): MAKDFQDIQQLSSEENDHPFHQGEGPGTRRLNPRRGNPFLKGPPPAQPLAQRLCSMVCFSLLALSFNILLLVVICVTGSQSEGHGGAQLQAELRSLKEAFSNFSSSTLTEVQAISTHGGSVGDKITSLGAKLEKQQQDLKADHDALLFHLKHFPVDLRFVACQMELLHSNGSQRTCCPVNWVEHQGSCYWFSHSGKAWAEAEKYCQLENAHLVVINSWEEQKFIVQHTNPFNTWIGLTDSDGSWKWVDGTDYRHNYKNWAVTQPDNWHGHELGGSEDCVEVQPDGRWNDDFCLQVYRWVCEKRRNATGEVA
Nature of the assay: Affinity of synthetic ligand to the asialoglycoprotein receptor. It is filed as binding. As to conditions: relative to YEE(GalNAcAH)3; no method described.

The target in assay [2] is T1, asialoglycoprotein receptor (ASGPr). As to conditions: reported by Lee et al., Glycoconjugate J., 1987; cited from earlier work.

On to “tris-(N-acetylgalactosamine aminohexyl)glycoside of tyrosyl(glutamyl)2 glutamate [YEEE(GalNAcAH)3]”, for which, in assay [1], the “affinity to asialoglycoprotein receptors” value is “comparable to YEE(GalNAcAH)3”.

Take “tris-(N-acetylgalactosamine aminohexyl)glycoside of tyrosyl(glutamyl)glutamate [YEE(GalNAcAH)3]”: the “affinity to the ASGP-r” value in assay [2] is given as “subnanomolar”.
